Experimental data as given in BindingDB's records for PubMed 29032032 (Quaid-I-Azam University, 2017).

Columns and labels:
Maltase-glucoamylase = Maltase-glucoamylase (Homo sapiens, UniProt O43451); experiment: Inhibition of alpha-glucosidase (unknown origin)
[1] = target: Alpha-glucosidase (Saccharomyces cerevisiae); experiment: Inhibition of Saccharomyces cerevisiae alpha-glucosidase using pNPG as substrate incubated for 30 mins by microplate reader analysis

Sequence of Maltase-glucoamylase (O43451 whole entry): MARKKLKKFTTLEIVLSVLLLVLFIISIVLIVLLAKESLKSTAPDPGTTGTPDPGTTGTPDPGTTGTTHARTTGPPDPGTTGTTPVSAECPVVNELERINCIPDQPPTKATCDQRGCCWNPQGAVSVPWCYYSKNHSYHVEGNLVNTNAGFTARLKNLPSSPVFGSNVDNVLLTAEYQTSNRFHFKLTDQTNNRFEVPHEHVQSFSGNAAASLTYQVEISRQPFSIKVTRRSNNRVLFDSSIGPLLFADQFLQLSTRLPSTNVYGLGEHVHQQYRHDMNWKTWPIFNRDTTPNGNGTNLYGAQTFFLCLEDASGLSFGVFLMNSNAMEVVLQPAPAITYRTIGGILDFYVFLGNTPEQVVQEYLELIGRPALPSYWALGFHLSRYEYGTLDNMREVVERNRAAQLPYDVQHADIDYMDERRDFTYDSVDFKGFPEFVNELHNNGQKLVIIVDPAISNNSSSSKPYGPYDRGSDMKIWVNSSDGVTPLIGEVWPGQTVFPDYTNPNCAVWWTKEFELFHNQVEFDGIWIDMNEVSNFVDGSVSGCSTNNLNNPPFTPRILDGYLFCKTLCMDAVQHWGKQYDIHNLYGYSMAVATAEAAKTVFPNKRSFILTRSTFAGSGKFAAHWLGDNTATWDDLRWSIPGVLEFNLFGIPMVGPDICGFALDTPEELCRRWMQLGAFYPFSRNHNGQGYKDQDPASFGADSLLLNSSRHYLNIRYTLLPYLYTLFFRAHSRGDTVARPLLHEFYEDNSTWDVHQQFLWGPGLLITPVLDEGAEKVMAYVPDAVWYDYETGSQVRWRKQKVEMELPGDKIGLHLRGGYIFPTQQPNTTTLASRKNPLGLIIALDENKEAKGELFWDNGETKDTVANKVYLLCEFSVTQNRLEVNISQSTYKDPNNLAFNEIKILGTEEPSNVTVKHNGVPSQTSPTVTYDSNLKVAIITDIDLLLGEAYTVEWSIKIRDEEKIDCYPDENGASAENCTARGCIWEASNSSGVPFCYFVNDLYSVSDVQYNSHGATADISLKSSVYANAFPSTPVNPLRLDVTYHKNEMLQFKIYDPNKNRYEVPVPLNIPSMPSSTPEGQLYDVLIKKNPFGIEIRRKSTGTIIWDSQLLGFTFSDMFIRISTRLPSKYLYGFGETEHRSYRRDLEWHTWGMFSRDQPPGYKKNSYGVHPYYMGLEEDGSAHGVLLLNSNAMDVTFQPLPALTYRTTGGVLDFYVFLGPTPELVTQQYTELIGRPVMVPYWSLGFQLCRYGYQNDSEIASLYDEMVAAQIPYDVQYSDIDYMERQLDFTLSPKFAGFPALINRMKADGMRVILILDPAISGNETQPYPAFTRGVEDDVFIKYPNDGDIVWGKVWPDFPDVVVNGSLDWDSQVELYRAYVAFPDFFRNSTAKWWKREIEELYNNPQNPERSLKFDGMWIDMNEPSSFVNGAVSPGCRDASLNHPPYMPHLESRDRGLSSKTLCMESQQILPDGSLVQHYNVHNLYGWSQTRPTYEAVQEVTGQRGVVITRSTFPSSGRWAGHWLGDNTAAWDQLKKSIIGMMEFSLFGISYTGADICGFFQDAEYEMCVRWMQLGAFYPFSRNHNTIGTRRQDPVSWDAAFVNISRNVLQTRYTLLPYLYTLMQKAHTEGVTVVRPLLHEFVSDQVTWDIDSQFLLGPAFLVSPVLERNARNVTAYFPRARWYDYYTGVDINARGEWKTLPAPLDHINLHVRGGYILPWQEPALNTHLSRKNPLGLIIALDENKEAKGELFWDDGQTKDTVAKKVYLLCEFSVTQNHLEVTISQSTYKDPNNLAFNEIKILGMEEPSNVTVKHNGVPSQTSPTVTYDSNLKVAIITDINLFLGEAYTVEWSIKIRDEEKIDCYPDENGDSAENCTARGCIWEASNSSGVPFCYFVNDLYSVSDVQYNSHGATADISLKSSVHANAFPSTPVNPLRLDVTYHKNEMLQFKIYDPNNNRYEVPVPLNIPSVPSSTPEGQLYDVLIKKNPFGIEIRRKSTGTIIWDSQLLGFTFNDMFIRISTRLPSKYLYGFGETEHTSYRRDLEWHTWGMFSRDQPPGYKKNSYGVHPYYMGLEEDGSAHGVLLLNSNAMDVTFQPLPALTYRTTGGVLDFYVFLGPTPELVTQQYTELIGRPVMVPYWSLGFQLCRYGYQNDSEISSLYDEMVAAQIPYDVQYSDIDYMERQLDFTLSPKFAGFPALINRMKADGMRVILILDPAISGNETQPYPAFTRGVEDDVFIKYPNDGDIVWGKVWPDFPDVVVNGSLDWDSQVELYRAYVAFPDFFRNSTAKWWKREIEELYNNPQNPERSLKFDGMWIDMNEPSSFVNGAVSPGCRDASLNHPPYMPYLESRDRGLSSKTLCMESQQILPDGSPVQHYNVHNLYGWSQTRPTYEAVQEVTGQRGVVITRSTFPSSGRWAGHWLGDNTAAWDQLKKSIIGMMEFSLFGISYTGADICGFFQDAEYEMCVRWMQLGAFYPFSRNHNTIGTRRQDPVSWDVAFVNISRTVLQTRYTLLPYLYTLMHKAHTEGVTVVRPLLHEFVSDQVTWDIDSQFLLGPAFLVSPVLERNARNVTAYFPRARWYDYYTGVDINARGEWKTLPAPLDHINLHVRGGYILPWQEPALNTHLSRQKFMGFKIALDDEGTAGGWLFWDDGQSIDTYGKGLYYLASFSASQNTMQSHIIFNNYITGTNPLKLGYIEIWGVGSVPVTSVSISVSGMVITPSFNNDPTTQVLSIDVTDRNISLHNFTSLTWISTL

IC50 [1] | Structure (SMILES) | IC50 (Maltase-glucoamylase)
– | O=c1oc2ccc(Cl)cc2c(O)c1C(c1ccc(Cl)cc1Cl)c1c(O)c2cc(Cl)ccc2oc1=O | 16.5 µM
– | O=c1oc2ccc(Cl)cc2c(O)c1C(c1cccc(O)c1)c1c(O)c2cc(Cl)ccc2oc1=O | 84.1 µM
– | COc1cc(C(c2c(O)c3cc(Cl)ccc3oc2=O)c2c(O)c3cc(Cl)ccc3oc2=O)ccc1O | 83.6 µM
– | CCOc1cc(C(c2c(O)c3cc(Cl)ccc3oc2=O)c2c(O)c3cc(Cl)ccc3oc2=O)ccc1O | 57.1 µM
– | COc1ccc(C(c2c(O)c3cc(C)ccc3oc2=O)c2c(O)c3cc(C)ccc3oc2=O)cc1 [acs.jmedchem.1c00409_ST.500] | 107 µM
– | CCOc1cc(C(c2c(O)c3cc(C)ccc3oc2=O)c2c(O)c3cc(C)ccc3oc2=O)ccc1O | 221 µM
– | COc1cc(C(c2c(O)c3cc(Cl)ccc3oc2=O)c2c(O)c3cc(Cl)ccc3oc2=O)cc(OC)c1OC | 128 µM
0.086 µM | COc1cc2cc(Oc3ccc4ccc(=O)oc4c3)c(=O)oc2cc1O [Daphnoretin] | –
– | COc1ccc(C(c2c(O)c3cc(Cl)ccc3oc2=O)c2c(O)c3cc(Cl)ccc3oc2=O)cc1O | 113 µM
– | COc1ccc(C(c2c(O)c3cc(Cl)ccc3oc2=O)c2c(O)c3cc(Cl)ccc3oc2=O)cc1OC | 91.4 µM
– | COc1cc(C(c2c(O)c3cc(C)ccc3oc2=O)c2c(O)c3cc(C)ccc3oc2=O)cc(OC)c1OC | 386 µM
0.231 µM | COc1cc2c(O)c(Oc3cc(O[C@@H]4O[C@H](CO)[C@@H](O)[C@H](O)[C@H]4O[C@@H]4O[C@H](CO)[C@@H](O)[C@H](O)[C@H]4O)c4ccc(=O)oc4c3)c(=O)oc2cc1O | –
0.05 µM | O=c1ccc2ccc(Oc3cc4cc(O)c(O)cc4oc3=O)cc2o1 [6,7-dihydroxy-3,7'-dicoumaryl ether] | –
– | O=c1oc2ccc(Cl)cc2c(O)c1C(c1cccc([N+](=O)[O-])c1)c1c(O)c2cc(Cl)ccc2oc1=O | 27.1 µM
